Experimental data: article PMC12527922, “Cocaine chemogenetics blunts drug-seeking by synthetic physiology” (Nature, 2025)
pEC50: −log10 of the molar value. Where two headings read alike, the source gives them in different places.

Experiments:
Test in all cases: cell-based
Type in all cases: cell-based, human α7 nAChR LBD, mouse 5HT3 IPD
[1] = target: α7–5HT3 mutant chimeric channels (Homo sapiens, UniProt P36544, L131G)
[2] = target: α7–5HT3 mutant chimeric channels (Homo sapiens, UniProt P36544, L141A)
[3] = target: α7–5HT3 mutant chimeric channels (Homo sapiens, UniProt P36544, L141F)
[4] = target: α7–5HT3 mutant chimeric channels (Homo sapiens, UniProt P36544, L141G)
[5] = target: α7–5HT3 mutant chimeric channels (Homo sapiens, UniProt P36544, L141P)
[6] = target: α7–5HT3 mutant chimeric channels (Homo sapiens, UniProt P36544, Q139A)
[7] = target: α7–5HT3 mutant chimeric channels (Homo sapiens, UniProt P36544, Q139F)
[8] = target: α7–5HT3 mutant chimeric channels (Homo sapiens, UniProt P36544, Q139K)
[9] = target: α7–5HT3 mutant chimeric channels (Homo sapiens, UniProt P36544, Q139L)
[10] = target: α7–5HT3 mutant chimeric channels (Homo sapiens, UniProt P36544, Q139P)
[11] = target: α7–5HT3 mutant chimeric channels (Homo sapiens, UniProt P36544, Q139R)
[12] = target: α7–5HT3 mutant chimeric channels (Homo sapiens, UniProt P36544, Q79G)
[13] = target: α7–5HT3 mutant chimeric channels (Homo sapiens, UniProt P36544, S170E)
[14] = target: α7–5HT3 mutant chimeric channels (Homo sapiens, UniProt P36544, S170F)
[15] = target: α7–5HT3 mutant chimeric channels (Homo sapiens, UniProt P36544, S170G)
[16] = target: α7–5HT3 mutant chimeric channels (Homo sapiens, UniProt P36544, S170H)
[17] = target: α7–5HT3 mutant chimeric channels (Homo sapiens, UniProt P36544, S170L)
[18] = target: α7–5HT3 mutant chimeric channels (Homo sapiens, UniProt P36544, S170N)
[19] = target: α7–5HT3 mutant chimeric channels (Homo sapiens, UniProt P36544, S170Q)
[20] = target: α7–5HT3 mutant chimeric channels (Homo sapiens, UniProt P36544, S170W)
[21] = target: α7–5HT3 mutant chimeric channels (Homo sapiens, UniProt P36544, S172K)
[22] = target: α7–5HT3 mutant chimeric channels (Homo sapiens, UniProt P36544, S172V)
[23] = target: α7–5HT3 mutant chimeric channels (Homo sapiens, UniProt P36544, W77F)
[24] = target: α7–5HT3 mutant chimeric channels (Homo sapiens, UniProt P36544, W77L)
[25] = target: α7–5HT3 mutant chimeric channels (Homo sapiens, UniProt P36544, W77Y)

Measured: pEC50

Sequence of α7–5HT3 mutant chimeric channels (Homo sapiens, UniProt P36544, W77Y) (P36544 23-224 W77Y): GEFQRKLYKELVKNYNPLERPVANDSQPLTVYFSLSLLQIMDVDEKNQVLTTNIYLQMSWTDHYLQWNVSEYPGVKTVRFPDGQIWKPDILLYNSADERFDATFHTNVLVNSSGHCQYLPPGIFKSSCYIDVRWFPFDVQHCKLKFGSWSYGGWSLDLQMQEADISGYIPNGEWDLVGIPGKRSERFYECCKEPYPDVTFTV
Sequence of α7–5HT3 mutant chimeric channels (Homo sapiens, UniProt P36544, W77Y) (P23979 242-489, further chain): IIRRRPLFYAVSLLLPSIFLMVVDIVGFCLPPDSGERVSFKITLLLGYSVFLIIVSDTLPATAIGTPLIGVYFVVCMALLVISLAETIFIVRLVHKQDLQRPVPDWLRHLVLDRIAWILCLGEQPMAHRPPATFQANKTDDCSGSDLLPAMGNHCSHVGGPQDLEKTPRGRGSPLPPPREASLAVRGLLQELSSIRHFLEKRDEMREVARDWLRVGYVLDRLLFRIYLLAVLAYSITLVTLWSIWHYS
Sequence of α7–5HT3 mutant chimeric channels (Homo sapiens, UniProt P36544, Q139R) (P23979 242-489): as the sequence (P23979 242-489, further chain) above
Sequence of α7–5HT3 mutant chimeric channels (Homo sapiens, UniProt P36544, Q139R) (P36544 23-224 Q139R): as the sequence (P36544 23-224 W77Y) above, with Y55W, Q117R counted along it
Sequence of α7–5HT3 mutant chimeric channels (Homo sapiens, UniProt P36544, W77F) (P23979 242-489): as the sequence (P23979 242-489, further chain) above
Sequence of α7–5HT3 mutant chimeric channels (Homo sapiens, UniProt P36544, W77F) (P36544 23-224 W77F): as the sequence (P36544 23-224 W77Y) above, with Y55F counted along it
Sequence of α7–5HT3 mutant chimeric channels (Homo sapiens, UniProt P36544, Q139P) (P23979 242-489): as the sequence (P23979 242-489, further chain) above
Sequence of α7–5HT3 mutant chimeric channels (Homo sapiens, UniProt P36544, Q139P) (P36544 23-224 Q139P): as the sequence (P36544 23-224 W77Y) above, with Y55W, Q117P counted along it
Sequence of α7–5HT3 mutant chimeric channels (Homo sapiens, UniProt P36544, Q139A) (P23979 242-489): as the sequence (P23979 242-489, further chain) above
Sequence of α7–5HT3 mutant chimeric channels (Homo sapiens, UniProt P36544, Q139A) (P36544 23-224 Q139A): as the sequence (P36544 23-224 W77Y) above, with Y55W, Q117A counted along it
Sequence of α7–5HT3 mutant chimeric channels (Homo sapiens, UniProt P36544, Q139K) (P23979 242-489): as the sequence (P23979 242-489, further chain) above
Sequence of α7–5HT3 mutant chimeric channels (Homo sapiens, UniProt P36544, Q139K) (P36544 23-224 Q139K): as the sequence (P36544 23-224 W77Y) above, with Y55W, Q117K counted along it
Sequence of α7–5HT3 mutant chimeric channels (Homo sapiens, UniProt P36544, Q79G) (P36544 23-224 Q79G): as the sequence (P36544 23-224 W77Y) above, with Y55W, Q57G counted along it
Sequence of α7–5HT3 mutant chimeric channels (Homo sapiens, UniProt P36544, Q79G) (P23979 242-489, further chain): as the sequence (P23979 242-489, further chain) above
Sequence of α7–5HT3 mutant chimeric channels (Homo sapiens, UniProt P36544, L141F) (P36544 23-224 L141F): as the sequence (P36544 23-224 W77Y) above, with Y55W, L119F counted along it
Sequence of α7–5HT3 mutant chimeric channels (Homo sapiens, UniProt P36544, L141F) (P23979 242-489, further chain): as the sequence (P23979 242-489, further chain) above
Sequence of α7–5HT3 mutant chimeric channels (Homo sapiens, UniProt P36544, Q139F) (P36544 23-224 Q139F): as the sequence (P36544 23-224 W77Y) above, with Y55W, Q117F counted along it
Sequence of α7–5HT3 mutant chimeric channels (Homo sapiens, UniProt P36544, Q139F) (P23979 242-489, further chain): as the sequence (P23979 242-489, further chain) above
Sequence of α7–5HT3 mutant chimeric channels (Homo sapiens, UniProt P36544, Q139L) (P36544 23-224 Q139L): as the sequence (P36544 23-224 W77Y) above, with Y55W, Q117L counted along it
Sequence of α7–5HT3 mutant chimeric channels (Homo sapiens, UniProt P36544, Q139L) (P23979 242-489, further chain): as the sequence (P23979 242-489, further chain) above

COC(=O)[C@H]1[C@@H](OC(=O)c2ccccc2)C[C@@H]2CC[C@H]1N2C [cocaine]
< 4.52: [1] | [1]; read-out: EC50 at α75HT3 L131G, sheet 1d, single determinations | [3] | [3]; read-out: EC50 at α75HT3 L141F, sheet 1d, single determinations | [5] | [5]; read-out: EC50 at α75HT3 L141P, Avg, sheet 1d, Avg | [6] | [6]; read-out: EC50 at a7 5HT3 Q139A, Avg, sheet 1d, Avg | [7] | [7]; read-out: EC50 at a7 5HT3 Q139F, Avg, sheet 1d, Avg | [8] | [8]; read-out: EC50 at a7 5HT3 Q139K, Avg, sheet 1d, Avg | [9] | [9]; read-out: EC50 at a7 5HT3 Q139L, sheet 1d, single determinations | [10] | [10]; read-out: EC50 at a7 5HT3 Q139P, Avg, sheet 1d, Avg | [11] | [11]; read-out: EC50 at a7 5HT3 Q139R, Avg, sheet 1d, Avg | [12] | [12]; read-out: EC50 at a7 5HT3 Q79G, sheet 1d, single determinations | [13] | [14] | [15] | [16] | [18] | [19] | [20] | [21] | [22] | [23] | [23]; read-out: EC50 at a7 5HT3 W77F, sheet 1d, single determinations | [24] | [24]; read-out: EC50 at a7 5HT3 W77L, Avg, sheet 1d, Avg | [25] | [25]; read-out: EC50 at a7 5HT3 W77Y, Avg, sheet 1d, Avg
5.46: [2]
5.22: [17]
5.63: [4]
